The record followed here is US7238813B2, “Chemical compounds” (Smithkline Beecham Corporation, priority 2000, dated 2007).

Structures can show the parent of a compound that is named as a salt.

The target in experiment [1] is Recombinant GST-Tie2 (Homo sapiens, UniProt Q02763). Description: Tie2 fluorescence polarization kinase activity assay (TIE2-FP). It is filed as biochemical. Particulars: starred examples, 200 μM ATP, read-out: TIE2-E (Tie-2 activities run utilizing Tie2-FP assay). How it is done:
Tie2 Fluorescence Polarization Kinase Activity Assay: (TIE2-FP)
Activation of Recombinant Tie2 Activation:
Recombinant GST-Tie2 was activated by incubating the enzyme in 20 mM Tris-HCl, pH 7.5, 12 mM MgCl2, 100 mM NaCl, 20 μM sodium vanidate, 1 mM DTT and 300 μM ATP at room temperature for 2 hours. The activation mixture was then passed through a NAP-25 desalting column (Pharmacia Biotech cat. no. 17-0852-02) to remove the free ATP. The activated enzyme was stored as aliquots at −80° C. in 20 mM Tris-HCl, pH 7.5 and 100 mM NaCl.
The final assay conditions were 50 mM HEPES, pH 7.5, 5% DMSO (when screening compounds), 200 μM ATP, 5 mM MgCl2, 1 mM DTT, 50 μM sodium vanidate, 1 nM activated enzyme, and 200 μM peptide. IC50's of compounds were measured under subsaturating ATP (200 μM) and varing concentrations of activated Tie2 and peptide substrate ([…]-OH; MW 1873 Da, TFA salt). Panvera Antiphosphotyrosine antibody (Cat#P2840) and PTK Green Tracer (Cat#P2842) were used to detect the phosphorylated peptide. Polarization was measured on a TECAN Polarion in 138-second cycles for 30 minutes at room temperature. IC50's were then determined from the % polarization using normal calculation methods.
On the technique in general: In fluorescence polarisation assays a small probe gives low polarisation when free and higher when bound to something large.

In experiment [2] the target is T1, GST-VEGFR2 (Homo sapiens, UniProt P35968).
T1 construct: GST-VEGFR2, baculovirus expressed recombinant constructs of the intracellular domains of human TIE2 tagged by GST; made in house
T1 sequence (P35968 786-1356 limits assumed): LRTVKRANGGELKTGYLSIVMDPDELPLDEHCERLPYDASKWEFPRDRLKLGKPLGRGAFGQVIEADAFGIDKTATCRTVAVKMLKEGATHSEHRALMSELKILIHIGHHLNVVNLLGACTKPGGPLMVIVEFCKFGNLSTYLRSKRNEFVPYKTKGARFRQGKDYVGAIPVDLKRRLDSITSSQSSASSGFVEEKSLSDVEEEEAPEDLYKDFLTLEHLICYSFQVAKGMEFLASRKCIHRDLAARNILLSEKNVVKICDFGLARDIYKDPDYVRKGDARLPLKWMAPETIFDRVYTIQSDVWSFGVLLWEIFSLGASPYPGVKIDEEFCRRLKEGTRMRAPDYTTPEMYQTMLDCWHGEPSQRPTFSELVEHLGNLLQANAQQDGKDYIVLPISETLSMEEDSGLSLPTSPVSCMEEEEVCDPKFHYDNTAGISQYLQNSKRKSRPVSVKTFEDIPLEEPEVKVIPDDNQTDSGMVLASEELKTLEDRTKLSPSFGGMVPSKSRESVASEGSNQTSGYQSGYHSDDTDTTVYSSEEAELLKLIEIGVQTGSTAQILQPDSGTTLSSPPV
The experiment is described as follows: VEGF-R2 enzyme assay (VEGF-E), LANCE method. It is filed as biochemical. Particulars: 75 μM ATP. On the technique in general: Time-resolved FRET reads energy transfer from a long-lived donor to a nearby acceptor.

Experiment [3] concerns the target T2, GST-TIE2 (intracellular domains of human TIE2) (Homo sapiens, UniProt Q02763).
T2 construct: made in house
The experiment is described as follows: TIE-2 enzyme assay (TIE2-E), LANCE method. Format: biochemical. To be noted: 80 uM ATP. In outline:
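Baculovirus GST-TIE2 (human intracellular domain, aa 762–1104) preactivated 30 min at RT with 2 mM ATP, then reacted 30 min at RT with 1 μM D1-15 peptide, 80 uM ATP, 10 mM MgCl2, pH 7.4, 2.4% DMSO. EDTA-stopped; LANCE Eu-anti-pTyr/streptavidin-APC read-out. IC50 by nonlinear regression, reported as pIC50.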

Experiment [4] deals with T3, TIE2 intracellular domain/c-fms extracellular domain (TIE2/c-fms) chimeric protein expressing mouse 3T3 cells (Homo sapiens, UniProt Q02763).
T3 construct: a TIE2 intracellular domain/c-fms extracellular domain (TIE2/c-fms) chimeric protein; expressed in transfected cells; host or cells: mouse 3T3 cells
T3 sequence (Q02763 770-1124 limits assumed, change not shown): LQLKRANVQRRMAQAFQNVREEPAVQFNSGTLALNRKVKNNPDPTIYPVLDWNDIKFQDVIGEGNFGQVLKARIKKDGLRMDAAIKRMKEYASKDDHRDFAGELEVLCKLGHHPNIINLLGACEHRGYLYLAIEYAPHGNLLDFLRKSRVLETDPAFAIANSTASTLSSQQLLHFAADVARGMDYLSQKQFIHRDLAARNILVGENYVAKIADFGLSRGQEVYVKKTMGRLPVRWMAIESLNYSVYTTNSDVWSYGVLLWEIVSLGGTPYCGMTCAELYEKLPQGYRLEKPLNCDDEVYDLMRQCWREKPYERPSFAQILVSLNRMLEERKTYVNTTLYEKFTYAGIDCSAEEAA
Description: TIE-2 autophosphorylation assay (TIE2-C), ELISA. It is filed as cell-based. Particulars: TIE2/c-fms 3T3 cells, MCSF activation. In outline:
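Mouse 3T3 cells expressing TIE2 intracellular/c-fms extracellular chimera treated with compound for 1 hr in serum-free DMEM (0.1% DMSO), then stimulated with MCSF. Lysates captured on anti-c-fms plates overnight at 4 °C; phosphotyrosine detected by biotin-PT66/HRP-streptavidin, OD450. IC50 by nonlinear regression, reported as pIC50.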
For orientation: An ELISA detects its analyte on a solid surface through an enzyme-linked reagent.

Experiment [5] has as its system Human umbilical cord endothelial cells (HUVEC). Description: VEGF-driven cellular proliferation assay: BrdU incorporation assay (VEGF-C). It is filed as cell-based. Particulars: for IC50: Homo sapiens. Further details: key to VEGF-C: + = pIC50 of 5.0–6.0; ++ = pIC50 of 6.0–7.0; +++ = pIC50 of > 7.0; − = a negative or inconclusive result. The essentials: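 HUVEC (≤6 passages) were plated at 5000 cells/well and exposed to compound 30 min in serum-free M199 containing 0.6% DMSO. Medium with 20 ng/ml VEGF was then added for 24 h, followed by a 24 h pulse with 10 μM BrdU and ELISA read at 450 nm. IC50 from nonlinear regression of percent inhibition was expressed as pIC50.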

T2 sequence (Q02763 762-1104): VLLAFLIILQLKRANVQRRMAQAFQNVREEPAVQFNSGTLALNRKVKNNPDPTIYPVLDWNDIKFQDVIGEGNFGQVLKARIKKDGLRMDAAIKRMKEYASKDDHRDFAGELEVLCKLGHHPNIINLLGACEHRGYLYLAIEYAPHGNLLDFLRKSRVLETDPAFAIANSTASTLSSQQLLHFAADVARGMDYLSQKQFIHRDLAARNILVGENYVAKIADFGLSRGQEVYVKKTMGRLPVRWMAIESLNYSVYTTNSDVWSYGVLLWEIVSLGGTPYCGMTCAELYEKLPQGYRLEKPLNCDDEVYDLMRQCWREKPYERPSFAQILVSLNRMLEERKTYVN
Recombinant GST-Tie2, sequence (Q02763 23-1124): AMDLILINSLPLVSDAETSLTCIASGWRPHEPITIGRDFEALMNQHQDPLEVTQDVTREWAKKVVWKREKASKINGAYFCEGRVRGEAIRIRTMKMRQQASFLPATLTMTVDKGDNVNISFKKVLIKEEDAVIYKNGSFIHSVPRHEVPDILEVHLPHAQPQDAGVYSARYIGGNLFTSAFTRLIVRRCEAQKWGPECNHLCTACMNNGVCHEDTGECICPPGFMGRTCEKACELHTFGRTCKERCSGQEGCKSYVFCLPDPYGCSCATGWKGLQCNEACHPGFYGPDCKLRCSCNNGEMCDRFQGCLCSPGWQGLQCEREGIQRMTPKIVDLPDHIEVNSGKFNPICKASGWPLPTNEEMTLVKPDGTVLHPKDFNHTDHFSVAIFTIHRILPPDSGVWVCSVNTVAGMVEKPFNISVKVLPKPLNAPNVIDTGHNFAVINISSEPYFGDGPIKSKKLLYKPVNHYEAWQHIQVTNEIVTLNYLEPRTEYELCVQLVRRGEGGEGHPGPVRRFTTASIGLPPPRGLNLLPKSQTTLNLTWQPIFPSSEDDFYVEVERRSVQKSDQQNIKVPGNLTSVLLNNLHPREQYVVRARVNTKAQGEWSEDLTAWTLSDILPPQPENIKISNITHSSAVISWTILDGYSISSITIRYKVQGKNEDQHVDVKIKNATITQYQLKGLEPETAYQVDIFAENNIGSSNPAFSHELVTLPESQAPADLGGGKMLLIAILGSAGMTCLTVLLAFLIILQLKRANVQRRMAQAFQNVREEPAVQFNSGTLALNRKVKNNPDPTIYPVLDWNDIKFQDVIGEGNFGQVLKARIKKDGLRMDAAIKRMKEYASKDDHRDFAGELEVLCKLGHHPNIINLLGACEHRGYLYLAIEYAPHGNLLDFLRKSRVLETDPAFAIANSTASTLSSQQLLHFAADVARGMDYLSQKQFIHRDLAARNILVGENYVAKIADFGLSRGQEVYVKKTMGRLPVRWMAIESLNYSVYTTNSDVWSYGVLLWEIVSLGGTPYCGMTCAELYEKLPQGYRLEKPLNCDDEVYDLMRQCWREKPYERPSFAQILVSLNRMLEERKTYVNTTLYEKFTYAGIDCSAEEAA

Take `COCCOCC(=O)Nc1nc2cc(Oc3ccc(NC(=O)Nc4nnc(C)s4)cc3)ccc2[nH]1` [Example 155, N-(5-(4-((5-Methyl-1,3,4-thiadiazol-2-yl)aminocarbonylamino)phenoxy)-1H-benzimidazol-2-yl)(2-(methoxy)ethoxy)acetamide]: the IC50 in experiment [1] is 1000 to 10000 nM; in experiment [2] it was 100 to 1000 nM.
Taken in the same sequence, the figures for `COCCOCC(=O)Nc1nc2cc(Oc3ccc(NC(=O)Nc4nc(C(C)(C)C)cs4)cc3)ccc2[nH]1` [Example 158, N-(5-(4-((4-tert-Butylthiazol-2-yl)aminocarbonylamino)phenoxy)-1H-benzimidazol-2-yl)(2-(methoxy)ethoxy)acetamide] were 100 to 1000 nM and less than 100 nM.
As to `O=C(Nc1ccc(Oc2ccc3[nH]c(NC(=O)c4c[nH]cn4)nc3c2)cc1)Nc1cc(C(F)(F)F)ccc1F` [Example 98, N-(5-(4-((2-Fluoro-5-(trifluoromethyl)phenyl)aminocarbonylamino)phenoxy)-1H-benzimidazol-2-yl)(1H-imidazole-4-carboxamide)dihydrochloride], the IC50 in experiment [3] was less than 100 nM; in experiment [4] it was less than 100 nM; in experiment [2], less than 100 nM; in experiment [5], 100 to 1000 nM.
Turning to `CN1CCN(Cc2ccc(C(=O)Nc3nc4cc(Oc5ccc(NC(=O)Nc6cc(C(F)(F)F)ccc6F)cc5)ccc4[nH]3)cc2)CC1` [Example 87, N-(5-(4-((2-Fluoro-5-(trifluoromethyl)phenyl)aminocarbonylamino)phenoxy)-1H-benzimidazol-2-yl)-4-(4-methyl-1-piperazinomethyl)benzamide], the IC50 in experiment [3] was less than 100 nM; in experiment [4], less than 100 nM; in experiment [2] it was less than 100 nM; in experiment [5], 100 to 1000 nM.
Turning to `COC(=O)Nc1nc2ccc(Oc3ccc(NC(=O)Nc4cc(Cl)ccc4Cl)cc3)nc2[nH]1.Cl` [Example 74, Methyl N-(5-(4-((2,5-dichlorophenyl)aminocarbonylamino)phenoxy)-3,4-diaza-1H-indole-2-yl)carbamate dihydrochloride], the IC50 in experiment [3], in experiment [4] and in experiment [2] was less than 100 nM throughout. Moreover, the VEGF-C entry in experiment [5] is given as “−”.
With `COC(=O)Nc1nc2ccc(Oc3ccc(NC(=O)Nc4cc(C(F)(F)F)ccc4F)cc3)cc2o1` [Example 115, Methyl N-(6-(4-((2-fluoro-5-(trifluoromethyl)phenyl)aminocarbonylamino)phenoxy)benzoxazol-2-yl)carbamate], the IC50 in experiment [3], in experiment [4], in experiment [2] and in experiment [5] was less than 100 nM in each case.
Regarding `COC(=O)Nc1nc2cc(Oc3cccc(NC(=O)Nc4cc(C(F)(F)F)ccc4F)c3)ccc2[nH]1` [Example 15, Methyl N-(5-(3-((2-Fluoro-5-(trifluoromethyl)phenyl)aminocarbonylamino)phenoxy)-1H-benzimidazol-2-yl)carbamate], the IC50 is less than 100 nM in experiment [3], less than 100 nM in experiment [4], less than 100 nM in experiment [2] and 100 to 1000 nM in experiment [5].
As for `Nc1nc2ccc(Oc3ccc(NC(=O)Nc4cc(C(F)(F)F)ccc4F)cc3)cc2[nH]1` [Example 22, 2-Amino-5-(4-((2-fluoro-5-(trifluoromethyl)phenyl)aminocarbonylamino)phenoxy)-1H-benzimidazole.], the IC50 in experiment [3] was less than 100 nM; in experiment [4] it was 1000 to 10000 nM; in experiment [2], less than 100 nM; in experiment [5] it was 1000 to 10000 nM.
For the compound `CN(C)CCOC(=O)Nc1nc2cc(Oc3ccc(NC(=O)Nc4cc(C(F)(F)F)ccc4F)cc3)ccc2[nH]1` [Example 80, 2-(Dimethylamino)ethyl N-(5-(4-((2-fluoro-5-(trifluoromethyl)phenyl)aminocarbonylamino)phenoxy)-1H-benzimidazol-2-yl)carbamate], the IC50 in experiment [3], in experiment [4], in experiment [2] and in experiment [5] was less than 100 nM in each case.
In the case of `COCCOCCOCC(=O)Nc1nc2ccc(Oc3ccc(NC(=O)Nc4cc(C(F)(F)F)ccc4F)cc3)cc2[nH]1` [Example 33, N-(5-(4-((2-Fluoro-5-(trifluoromethyl)phenyl)aminocarbonylamino)phenoxy)-1H-benzimidazol-2-yl)(2-(2-(methoxy)ethoxy)ethoxy)acetamide], the IC50 in experiment [3], in experiment [4], in experiment [2] and in experiment [5] was less than 100 nM in each case.
Consider `COC(=O)Nc1nc2cc(Oc3ccc(NC(=O)Nc4cccc(C(F)(F)F)c4)cc3)ccc2[nH]1` [Example 19, Methyl N-(5-(4-((3-(trifluoromethyl)phenyl)aminocarbonylamino)phenoxy)-1H-benzimidazol-2-yl)carbamate], for which the IC50 in experiment [3], in experiment [4] and in experiment [2] was less than 100 nM each time. Besides, in experiment [5], the VEGF-C result is listed as “−”.
For `O=C(Cn1nnc(N2CCCC2)n1)Nc1nc2cc(Oc3ccc(NC(=O)Nc4cc(C(F)(F)F)ccc4F)cc3)ccc2[nH]1` [Example 96, N-(5-(4-((2-Fluoro-5-(trifluoromethyl)phenyl)aminocarbonylamino)phenoxy)-1H-benzimidazol-2-yl)(5-(1-pyrrolidino)tetrazol-2-yl)acetamide], the IC50 is less than 100 nM in experiment [3], less than 100 nM in experiment [4], less than 100 nM in experiment [2] and 100 to 1000 nM in experiment [5].
As to `COC(=O)Nc1nc2ccc(Oc3ccc(NC(=O)Nc4cc(C(F)(F)F)ccc4F)cc3)cc2s1` [Example 64, Methyl N-(6-(4-((6-fluoro-3-(trifluoromethyl)phenyl)aminocarbonylamino)phenoxy)-benzthiazol-2-yl)carbamate], the IC50 in experiment [3], in experiment [4], in experiment [2] and in experiment [5] was less than 100 nM in each case.
Turning to `COC(=O)Nc1nc2cc(Oc3ccc(NC(=O)Nc4cccc(C#N)c4)cc3)ccc2[nH]1` [Example 49], the IC50 is 100 to 1000 nM in experiment [3], 100 to 1000 nM in experiment [4] and less than 100 nM in experiment [2]. For the same compound, in experiment [5], the VEGF-C result is “−”.
For the compound `CCOC(=O)Nc1nc2cc(Oc3ccc(NC(=O)Nc4cc(C(F)(F)F)ccc4F)cc3)ccc2[nH]1` [Example 17, Ethyl N-(5-(4-((2-fluoro-5-(trifluoromethyl)phenyl)aminocarbonylamino)phenoxy)-1H-benzimidazol-2-yl)carbamate], the IC50 in experiment [3], in experiment [4], in experiment [2] and in experiment [5] was less than 100 nM in each case.
Regarding `COC(=O)Nc1nc2nc(Oc3ccc(NC(=O)Nc4cc(C(F)(F)F)ccc4F)cc3)ccc2[nH]1` [Example 69, dihydrochloride], the IC50 in experiment [3] is less than 100 nM; in experiment [4] it was less than 100 nM; in experiment [2] it was less than 100 nM; in experiment [5], 100 to 1000 nM.
For the compound `COC(=O)Nc1nc2ccc(Sc3ccc(NC(=O)Nc4cccc(Br)c4)cc3)cc2[nH]1` [Example 4, Methyl N-(5-(4-((3-bromophenyl)aminocarbonylamino)phenylthio)-1H-benzimidazol-2-yl)carbamate], the IC50 in experiment [3] was less than 100 nM; in experiment [4] it was 1000 to 10000 nM; in experiment [2], 100 to 1000 nM. Besides, in experiment [5], the VEGF-C entry is “−”.
The matching figures for `COC(=O)Nc1nc2cc(Oc3ccc(NC(=O)Nc4cccc(Cl)c4)cc3)ccc2[nH]1` [Example 1, Methyl N-(5-(4-((3-chlorophenyl)aminocarbonylamino)phenoxy)-1H-benzimidazol-2-yl)carbamate]: less than 100 nM, 100 to 1000 nM, less than 100 nM and “−”.
